{"source": "patent US20230212653A1", "about": "“METHODS AND MATERIALS FOR ASSESSING HOMOLOGOUS RECOMBINATION DEFICIENCY IN BREAST CANCER SUBTYPES” (Myriad Genetics, Inc., priority 2021, published 2023)", "test_system": "triple negative breast cancer (TNBC)", "experiment": "Pathologic response of a neoadjuvant TNBC cohort treated with cisplatin (Example 6)", "type": "in vivo, human", "details": "for PR = yes, % response / pCR = yes, % response: secondary analysis; for pCR = yes, % response: n=51", "procedure": "Analysis of a neoadjuvant TNBC cohort treated with cisplatin was examined relative to the relationship between all three HRD scores and response. All p values were from logistic regression models with response to cisplatin as the dependent variable.\nHR Deficiency status was determined for 62 of the 70 samples (70 individual patients) received from a cisplatin cohort (8 had insufficient tumors for analysis). Of these, 31 (50%) were HR deficient, 22 (35%) were non-HR deficient, and 9 (15%) were undetermined. FIG. 15 provides a histogram showing the distribution of HRD scores in the cohort. Scores ≥42 were considered to have high HRD (see also, Example 5). […] Pathologic complete response (pCR), which is associated with long-term survival, was defined as a residual cancer burden (RBC) of 0 and observed in 11/59 (19%) samples. […] These overall response rates correlated with monotherapy expectations.\nStatistical analyses followed a predefined Statistical Analysis Plan (SAP), which included primary, secondary, and BRCA wild-type subset analyses."}
{"smiles": "N.N.[Cl][Pt][Cl]", "note": "[cisplatin]", "values": [{"measurement": "PR = yes, % response", "setting": "BRCA Mutant", "value": "5 (55.6%)"}, {"measurement": "pCR = yes, % response", "setting": "BRCA Mutant", "value": "3 (33.3%)"}, {"measurement": "PR = yes, % response", "setting": "BRCA Non-mutant", "value": "13 (31.0%)"}, {"measurement": "pCR = yes, % response", "setting": "BRCA Non-mutant", "value": "5 (11.9%)"}, {"measurement": "Pathologic complete response (pCR) rate", "setting": "whole cisplatin cohort, 11/59 samples, pCR = residual cancer burden 0", "value": 19, "unit": "%"}, {"measurement": "Pathologic response (PR) rate", "setting": "whole cisplatin cohort, 22/59 samples, PR = residual cancer burden 0 or 1", "value": 37, "unit": "%"}]}
